In US9856216B2, “Compounds as TNIK, IKKε and TBK1 inhibitors and pharmaceutical composition comprising same” (GREEN CROSS CORPORATION, priority 2015, dated 2018):
pIC50: −log10 of the molar value.

The compounds below were run against T1, TNIK (Homo sapiens, UniProt Q9UKE5) (assay: ADP-Glo Kinase Assay, inhibition activity on TNIK). Conditions: read-out: TNIK.
T1 construct: purchased Promega V4158
Type: biochemical
Description: The inhibition activities on TNIK, IKKε and TBK1 were measured by a luminometer, TNIK/IKKε/TBK1 Kinase Enzyme System (Promega, Ca# V4158; Invitrogen, PR8031B, Promega, Ca# V3991) and ADP-Glo Kinase Assay using ADP-Glo™ Kinase Analysis Kit (Promega, Ca# V9101) and a kinase reaction buffer [40 mM Tris(pH 7.5), 20 mM MgCl2, 0.1 mg/mL BSA] in accordance with the manufacturer's protocol.

T1 sequence (Q9UKE5 1-367 limits assumed): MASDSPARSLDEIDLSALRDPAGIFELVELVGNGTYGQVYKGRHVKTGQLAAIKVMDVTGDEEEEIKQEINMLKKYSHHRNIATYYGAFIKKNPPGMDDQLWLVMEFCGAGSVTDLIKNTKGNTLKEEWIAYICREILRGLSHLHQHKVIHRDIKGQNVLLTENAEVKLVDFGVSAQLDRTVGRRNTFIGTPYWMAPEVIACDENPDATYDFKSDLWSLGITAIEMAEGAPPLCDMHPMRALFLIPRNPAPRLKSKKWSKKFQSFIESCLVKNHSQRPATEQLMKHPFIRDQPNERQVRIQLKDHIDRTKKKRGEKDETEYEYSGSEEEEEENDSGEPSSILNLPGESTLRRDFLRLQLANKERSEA

First: O=C(Nc1ccc(-c2ccc3ncccc3c2)c2c1C(=O)NC2)c1ccc(F)cc1 [Example 214, 4-Fluoro-N-(3-oxo-7-(quinolin-6-yl)isoindolin-4-yl)benzamide]
Second: O=C(Nc1ccc(-c2cccc3ncccc23)c2c1C(=O)NC2)c1ccc(F)cc1 [Example 215, 4-Fluoro-N-(3-oxo-7-(quinolin-5-yl)isoindolin-4-yl)benzamide]
The pIC50 of the first is lower: < 4.70 for the first, 6.62 for the second. The second is the more potent here.

First: O=C(Nc1ccc(-c2ccnc3ccccc23)c2c1C(=O)NC2)c1ccc(F)cc1 [Example 216, 4-Fluoro-N-(3-oxo-7-(quinolin-4-yl)isoindolin-4-yl)benzamide]
Second: O=C(Nc1ccc(-c2cccc3cc[nH]c23)c2c1C(=O)NC2)c1ccc(F)cc1 [Example 217, N-(7-(1H-indol-7-yl)-3-oxoisoindolin-4-yl)-4-fluorobenzamide]
The pIC50 of the first is 1.27 log units higher: 6.80 for the first, 5.53 for the second. The first is the more potent here.

Compared with `O=C(Nc1ccc(-c2cccc3[nH]cnc23)c2c1C(=O)NC2)c1ccc(F)cc1` [Example 218, N-(7-(1H-benzo[d]imidazol-4-yl)-3-oxoisoindolin-4-yl)-4-fluorobenzamide], `O=C(Nc1ccc(Cc2ccccc2)c2c1C(=O)NC2)c1ccc(F)cc1` [Example 219, N-(7-benzyl-3-oxoisoindolin-4-yl)-4-fluorobenzamide] is 1.37 log units lower in pIC50: 6.23 for the first, 4.86 for the second. The first is the more potent here.

Going from `COc1cccc(-c2ccc(NC(=O)c3ccco3)c3c2CN(C(=O)c2ccco2)C3=O)c1OC` [Example 224, N-(7-(2,3-dimethoxyphenyl)-2-(furan-2-carbonyl)-3-oxoisoindolin-4-yl)furan-2-carboxamide] to `COc1cccc(-c2ccc(NC(=O)c3cccs3)c3c2CN(C(=O)c2cccs2)C3=O)c1OC` [Example 225, N-(7-(2,3-dimethoxyphenyl)-3-oxo-2-(thiophene-2-carbonyl)isoindolin-4-yl)thiophene-2-carboxamide], the pIC50 falls from 6.00 to < 4.70. The first is the more potent here.

`O=C(Nc1ccc(F)cc1)Nc1ccc(-c2ccccc2)c2c1C(=O)NC2` [Example 226, 1-(4-Fluorophenyl)-3-(3-oxo-7-phenylisoindolin-4-yl)urea] and `Cc1ccc(NC(=O)Nc2ccc(-c3ccccc3)c3c2C(=O)NC3)cc1` [Example 232, 1-(3-Oxo-7-phenylisoindolin-4-yl)-3-(p-tolyl)urea] are within 0.2 log units of each other in pIC50: 5.60 for the first, 5.68 for the second.

Compared with `O=C(Nc1ccccc1)Nc1ccc(-c2ccccc2)c2c1C(=O)NC2` [Example 227, 1-(3-Oxo-7-phenylisoindolin-4-yl)-3-phenylurea], `COc1ccccc1NC(=O)Nc1ccc(-c2ccccc2)c2c1C(=O)NC2` [Example 233, 1-(2-Methoxyphenyl)-3-(3-oxo-7-phenylisoindolin-4-yl)urea] is 1.14 log units lower in pIC50: 5.92 for the first, 4.78 for the second. The first is the more potent here.

Going from `N#Cc1ccc(NC(=O)Nc2ccc(-c3ccccc3)c3c2C(=O)NC3)cc1` [Example 228, 1-(4-Cyanophenyl)-3-(3-oxo-7-phenylisoindolin-4-yl)urea] to `O=C(Nc1ccc([N+](=O)[O-])cc1)Nc1ccc(-c2ccccc2)c2c1C(=O)NC2` [Example 235, 1-(4-Nitrophenyl)-3-(3-oxo-7-phenylisoindolin-4-yl)urea], the pIC50 rises from < 4.70 to 5.34.

Compared with `CCCCNC(=O)Nc1ccc(-c2ccccc2)c2c1C(=O)NC2` [Example 229, 1-Butyl-3-(3-oxo-7-phenylisoindolin-4-yl)urea], `CCNC(=O)Nc1ccc(-c2ccccc2)c2c1C(=O)NC2` [Example 236, 1-Ethyl-3-(3-oxo-7-phenylisoindolin-4-yl)urea] is 0.28 log units higher in pIC50: 5.96 for the first, 6.24 for the second. The second is the more potent here.

First: COc1ccc(NC(=O)Nc2ccc(-c3ccccc3)c3c2C(=O)NC3)cc1 [Example 230, 1-(4-Methoxyphenyl)-3-(3-oxo-7-phenylisoindolin-4-yl)urea]
Second: CC(C)NC(=O)Nc1ccc(-c2ccccc2)c2c1C(=O)NC2 [Example 234, 1-Isopropyl-3-(3-oxo-7-phenylisoindolin-4-yl)urea]
The pIC50 of the first is 0.33 log units higher: 6.05 for the first, 5.72 for the second.

For `O=C(Nc1ccc(-c2ccccc2)c2c1C(=O)NC2)NC1CCCCC1` [Example 231, 1-Cyclohexyl-3-(3-oxo-7-phenylisoindolin-4-yl)urea], the pIC50 was < 4.70.
